Data from ChEMBL document CHEMBL1153818, “Integration of ligand and structure-based virtual screening for the identification of the first dual targeting agent for heat shock protein 90 (Hsp90) and tubulin” (J Med Chem, 2009).
pIC50: −log10 of the molar value. Active and inactive are the calls of the source. The calls are words filed in the database; no cut-off is given here.

Columns and labels:
[1] = system: MCF7; assay: Induction of ERalpha degradation in human MCF7 cells at 1 uM after 24 hrs by Western blot analysis; type: functional, cell-based
[2] = system: MCF7; assay: Induction of ERalpha degradation in human MCF7 cells at 200 uM after 24 hrs by Western blot analysis; type: functional, cell-based
[3] = target: Heat shock protein HSP 90-beta (Homo sapiens, UniProt P08238); assay: Inhibition of Hsp90 by FP ATP-site binding assay
Heat shock protein HSP 90-beta, sequence (P08238 whole entry): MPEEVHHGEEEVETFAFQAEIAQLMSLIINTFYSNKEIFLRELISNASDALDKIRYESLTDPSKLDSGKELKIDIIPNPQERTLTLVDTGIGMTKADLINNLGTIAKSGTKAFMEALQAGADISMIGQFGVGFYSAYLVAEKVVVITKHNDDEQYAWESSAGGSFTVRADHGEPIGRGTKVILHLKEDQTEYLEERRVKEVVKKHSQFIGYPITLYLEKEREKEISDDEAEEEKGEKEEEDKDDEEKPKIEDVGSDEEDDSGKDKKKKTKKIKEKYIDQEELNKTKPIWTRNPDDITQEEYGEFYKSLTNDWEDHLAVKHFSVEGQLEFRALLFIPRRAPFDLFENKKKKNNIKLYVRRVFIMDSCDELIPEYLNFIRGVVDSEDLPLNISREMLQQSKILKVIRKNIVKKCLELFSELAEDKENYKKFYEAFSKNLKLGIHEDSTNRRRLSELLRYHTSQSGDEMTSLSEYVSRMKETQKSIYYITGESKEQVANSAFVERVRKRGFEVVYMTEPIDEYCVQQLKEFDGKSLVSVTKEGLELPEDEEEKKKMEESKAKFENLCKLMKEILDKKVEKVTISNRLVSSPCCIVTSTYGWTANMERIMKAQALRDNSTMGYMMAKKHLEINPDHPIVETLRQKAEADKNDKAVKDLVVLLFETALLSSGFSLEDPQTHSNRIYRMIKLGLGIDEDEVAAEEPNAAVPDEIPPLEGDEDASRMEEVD

[4] = organism: Bos taurus; assay: Inhibition of bovine tubulin polymerization

| pIC50 [3] | Activity [4] | SMILES | Activity [1] | Activity [2] |
| --- | --- | --- | --- | --- |
|  |  | C=CCNC1=C2C[C@@H](C)C[C@H](OC)[C@H](O)[C@@H](C)/C=C(\C)[C@H](OC(N)=O)[C@@H](OC)/C=C\C=C(/C)C(=O)NC(=CC1=O)C2=O | Active |  |
| 4.09 | Dose-dependent effect | COc1cc(C(=O)n2ncc3cc(N)ccc32)cc(OC)c1OC |  | Active |
